The test system of data set [1] is Rattus norvegicus. As to the kind of experiment: In vivo heart distribution of free doxorubicin after 6 hr intravenous administration of 2.5 mg/kg of compound in rat bearing Walker 256 cells. The class given is ADME, organism-based. More on the design: dose 2.5 mg/kg, route intravenous.
Data set [2] concerns Rattus norvegicus. As to the kind of experiment: In vivo plasma distribution of free doxorubicin after 6 h intravenous administration of 2.5 mg/kg of compound in rat bearing Walker 256 cells. Format: ADME, organism-based. On the set-up: dose 2.5 mg/kg, route intravenous.
Data set [3] relates to Rattus norvegicus. Kind of data set: In vivo liver distribution of free doxorubicin after 6 hr intravenous administration of 2.5 mg/kg of compound in rat bearing Walker 256 cells. Format: ADME, organism-based. More on the design: dose 2.5 mg/kg, route intravenous.
The subject of data set [4] is Rattus norvegicus. Kind of data set: In vivo plasma distribution of total doxorubicin after 6 hr intravenous administration of 2.5 mg/kg of compound in rat bearing Walker 256 cells. More on the design: dose 2.5 mg/kg, route intravenous. The class given is ADME, organism-based.
The subject of data set [5] is Rattus norvegicus. As to the kind of experiment: In vivo tumor distribution of free doxorubicin after 6 h intravenous administration of 2.5 mg/kg of compound in rat bearing Walker 256 cells. On the set-up: dose 2.5 mg/kg, route intravenous. The class given is ADME, organism-based.
Data set [6] concerns Rattus norvegicus. As to the kind of experiment: In vivo tumor distribution of total doxorubicin after 6 hr intravenous administration of 2.5 mg/kg of compound in rat bearing Walker 256 cells. Format: ADME, organism-based. More on the design: dose 2.5 mg/kg, route intravenous.
The species entered for data set [7] is Rattus norvegicus. Kind of data set: Effective dose was measured in rats. The class given is functional.
Data set [8] relates to Rattus norvegicus. As to the kind of experiment: In vivo liver distribution of total doxorubicin after 6 h intravenous administration of 2.5 mg/kg of compound in rat bearing Walker 256 cells. Format: ADME, organism-based. On the set-up: dose 2.5 mg/kg, route intravenous.
Data set [9] relates to Rattus norvegicus. Kind of data set: In vivo spleen distribution of total doxorubicin after 6 hr intravenous administration of 2.5 mg/kg of compound in rat bearing Walker 256 cells. The class given is ADME, organism-based. More on the design: dose 2.5 mg/kg, route intravenous.

For one compound, Dose/g tissue and ED50 results are on record in ChEMBL document CHEMBL1133073, “Structure-activity relationships of carboxymethylpullulan-peptide-doxorubicin conjugates--systematic modification of peptide spacers” (Bioorg Med Chem Lett, 2000).

On to `COc1cccc2c1C(=O)c1c(O)c3c(c(O)c1C2=O)C[C@@](O)(C(=O)CO)C[C@@H]3O[C@H]1C[C@H](N)[C@H](O)[C@H](C)O1` [DOXORUBICIN], for which the Dose/g tissue turned out to be 1.13% with Rattus norvegicus [1]; 0% in the data set with Rattus norvegicus [2]; 0.56% in the data set with Rattus norvegicus [3]; 0% in the data set with Rattus norvegicus [4]; 0.24% in the data set with Rattus norvegicus [5]; 0.35% in the data set with Rattus norvegicus [6]. Besides, the Dose/g tissue in the data set on Rattus norvegicus [8] turned out to be 0.54%; with Rattus norvegicus [9] it was 2.21%. For the same compound, the 50% effective dose (ED50) in the data set filed under Rattus norvegicus [7] was 1.17 mg/kg.

One may read the ED50 as the dose at which the effect has come halfway, by size or by number of responders. High values mean weaker potency, low ones greater potency.
